Consider six molecules from patent US11273170B2, “Methods of treating cancer” (Ascend Biopharmaceuticals Ltd, priority 2016, dated 2022).

Holding throughout (assay type): cell-based
One assay relates to HeLa-RIP3^+ cells. The experiment in a line: Induction of cell death by TNF alpha in the presence of cycloheximide and pan caspase inhibitor zVAD, trypan blue exclusion. Particulars: TNF alpha 50 ng/ml in the presence of cycloheximide (250 ng/ml) plus zVAD (50 μM); relative to untreated cells. How it is done: HeLa-RIP3 cells (250,000/well) were plated in six-well plates 24 hours prior to treatment with TNF alpha and cycloheximide (TCZ treatment). Cells were pre-treated with CHX (250 ng/ml) and the pan caspase inhibitor zVAD (50 μM) one hour before TNF alpha (50 ng/ml) treatment. Cell viability was determined after 12-15 hours by trypan blue exclusion analysis.

The next assay has as its system HeLa (RIP3^−) cells. The experiment in a line: Induction of cell death by TNF alpha, trypan blue exclusion. Particulars: TNF alpha 50 ng/ml; under any condition; 12-15 hours.
Another assay has as its system HeLa-RIP3^− cells. To be noted: Birinapant 5 μM or 30 μM, 48 hours. How it is done:
HeLa-RIP3^− cells (250,000/well) cells were plated in six-well plates 24 hours prior to infection. ASN-002 infections were performed in serum-free medium at multiplicities of infection (MOI) of 10. Two doses of Fluorouracil were co-administered with viruses, and cell death kinetics was analyzed over the period of 3 days.
HeLa-RIP3^− cells (250,000/well) cells were plated in six-well plates 24 hours prior to infection. ASN-002 infections were performed in serum-free medium at multiplicities of infection (MOI) of 10. Two doses of chemotherapeutic agents were co-administered with viruses, and cell death kinetics was analyzed over the period of 3 days.

For assay [1], the system named is HeLa-RIP3^− or HeLa-RIP3^+ cells. The experiment in a line: Dose response for chemotherapeutic agents, cell viability by trypan blue exclusion. Particulars: 48 hour exposure; for EC50: read-out: ED50 at 48 hours (cell death). How it is done: HeLa-RIP3^− or HeLa-RIP3^+ cells (250,000/well) were seeded in six-well plates in complete DMEM medium, and after 24 hours, cells were treated with multiple doses of Fluorouracil. Cell viability was determined 48 hours post treatment via trypan blue exclusion analysis.
HeLa-RIP3^− or HeLa-RIP3^+ cells (250,000/well) were seeded in six-well plates in complete DMEM medium, and after 24 hours, cells were treated with multiple doses of the Trabectedin, Birinapant, or Cisplatin. Cell viability was determined 48 hours post treatment via trypan blue exclusion analysis.

The subject of assay [2] is HeLa (RIP3^+/necroptosis-competent) cells. Description: Cell death in the presence of inhibitors of apoptosis and necroptosis. Particulars: for cell death: no inhibitor, Trabectedin 2.5 nM (alone or plus AdCMV-NULL); for cell death in the presence of zVAD: pan caspase inhibitor zVAD 50 μM. How it is done:
In order to understand which of several possible cell death pathways are activated by Fluorouracil or ASN-002 treatment alone and in combination, experiments were carried out with these agents in the presence of inhibitors of apoptosis and/or necroptosis in HeLa (RIP3^+/necroptosis-competent) cells.
(§1) In order to understand which of several possible cell death pathways are activated by Trabectedin treatment alone and in combination with IFN gamma (virus expressed or exogenously added), experiments were carried out with these agents, alone or in combination, in the presence of inhibitors of apoptosis and/or necroptosis inhibitors in both HeLa (RIP3^+/necroptosis-competent) cells and HeLa (RIP3^−/necroptosis-deficient) cells.

In assay [3] the test system is RIP3^− (necroptosis-deficient) HeLa cells. Description: Cell death in the presence of a pan caspase inhibitor of apoptosis. Particulars: for cell death: no inhibitor, Trabectedin alone or plus AdCMV-NULL. How it is done:
In follow-up experiments, RIP3^− (necroptosis-deficient) HeLa cells were subjected to the same treatments as described above.
as §1

Setting [4] is: Fluorouracil 10 μM, Trabectedin 2.5 nM.

“Also recorded” adds a separate entry of the source.

As to TNF alpha, the cell death entry with HeLa-RIP3^+ cells is recorded as “about 70%”. Besides, the “induction of cell death” value with HeLa (RIP3^−) cells was “failed to induce cell death”.
For `CC[C@H](NC(=O)[C@H](C)NC)C(=O)N1C[C@@H](O)C[C@H]1Cc1c(-c2[nH]c3cc(F)ccc3c2C[C@@H]2C[C@H](O)CN2C(=O)[C@H](CC)NC(=O)[C@H](C)NC)[nH]c2cc(F)ccc12` [Birinapant], the “cell death in combination with control adenovirus (Ad-CMV-NULL) relative to agent alone” value with HeLa-RIP3^− cells was “same level of cell death as Birinapant alone; also recorded: indistinguishable from that induced by Birinapant alone”. Also, in assay [1], the EC50 was around 30 µM.
On to `N.N.[Cl][Pt][Cl]` [Cisplatin], for which the “ED50 at 48 hours (cell death)” value in assay [1] is around 10 mg/L.
With `O=c1[nH]cc(F)c(=O)[nH]1` [Fluorouracil], the “cell death in the presence of Necrosulfonamide (NSA)” value in assay [2] (necroptosis inhibitor NSA 1 μM, Fluorouracil 10 μM) is recorded as 45%. For the same molecule, the cell death entry in assay [2] (Fluorouracil 10 μM) is “approximately 35%”. In assay [2] (setting [4]), the “cell death in the presence of zVAD” value is listed as “about 80%”. In assay [1], the EC50 was around 50 µM. Also, in assay [3], the “cell death in the presence of zVAD relative to treatment without inhibitor” value was “slightly lower”.
For `COc1cc2c(cc1O)CCN[C@]21CS[C@@H]2c3c(OC(C)=O)c(C)c4c(c3[C@H](COC1=O)N1[C@@H]2[C@H]2c3c(cc(C)c(OC)c3O)C[C@@H]([C@@H]1O)N2C)OCO4` [Trabectedin], the “cell death in the presence of NSA relative to treatment without inhibitor” value in assay [2] (NSA) is recorded as “slightly lower”. The results for the cell death entry in assay [2] (Fluorouracil 10 μM) and in assay [3] were “approximately 35%” and 33%, respectively. The “cell death in the presence of zVAD” value in assay [2] (setting [4]) is “about 95%”; in assay [3] (pan caspase inhibitor zVAD) it was 87%. Further, the “cell death in the presence of both zVAD and NSA” value in assay [2] (zVAD plus NSA, Fluorouracil 10 μM, Trabectedin 2.5 nM) is given as “about 60%”. Further, in assay [1], the EC50 is around 0.01 µM.

B1: purified IFN gamma: purified interferon gamma, cytokine (protein, UniProt P01579 24-161, looked up)
Interferon gamma: QDPYVKEAENLKKYFNAGHSDVADNGTLFLGILKNWKEESDRKIMQSQIVSFYFKLFKNFKDDQSIQKSVETIKEDMNVKFFNSNKKKRDDFEKLTNYSVTDLNVQRKAIHELIQVMAELSPAAKTGKRKRSQMLFRG
For the molecule B1, the cell death in assay [2] (Fluorouracil 10 μM) and in assay [3] was around 30% throughout. Also, the “cell death in the presence of zVAD relative to treatment without inhibitor” value in assay [3] is reported as “marked, though not complete, rescue of cell death”; in assay [3] (listed as IFN gamma), “significantly reduced cell death”.
